Measured values reported in PubChem BioAssay (NCI).
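All cell lines were grown in 96-well plates and treated with compound for 48 hours. The concentration for 50% growth inhibition is given as GI50. TGI: total growth inhibition.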

Key:
Experiment in all cases: inhibition of tumour cell growth, NCI panel, 48 h
COLO 205 colon = test system: COLO 205 colon
SNB-75 CNS = test system: SNB-75 CNS
OVCAR-3 ovarian = test system: OVCAR-3 ovarian
OVCAR-8 ovarian = test system: OVCAR-8 ovarian
CCRF-CEM leukemia = test system: CCRF-CEM leukemia
UACC-62 melanoma = test system: UACC-62 melanoma
NCI-H23 lung = test system: NCI-H23 lung
MDA-MB-435 = test system: MDA-MB-435
NCI-H460 lung = test system: NCI-H460 lung
LOX IMVI melanoma = test system: LOX IMVI melanoma
KM12 colon = test system: KM12 colon

Row | SMILES | TGI (COLO 205 colon) [µM] | TGI (SNB-75 CNS) [µM] | TGI (OVCAR-3 ovarian) [µM] | TGI (OVCAR-8 ovarian) [µM] | TGI (CCRF-CEM leukemia) [µM] | TGI (UACC-62 melanoma) [µM] | TGI (NCI-H23 lung) [µM] | TGI (MDA-MB-435) [µM] | TGI (NCI-H460 lung) [µM] | TGI (LOX IMVI melanoma) [µM] | TGI (KM12 colon) [µM] | GI50 (SNB-75 CNS) [µM]
1 | CC1=C(C)C(=O)OC(C(C)(O)C2(O)CCC3(O)C4CC(Cl)C5(O)C(O)C=CC(=O)C5(C)C4CCC32C)C1 (centres undefined) | 42.8 | > 100 | > 100 | > 100 | 53.4 | > 100 | > 100 | > 100 | > 100 | 46.4 | > 100 | 
2 | c1ccc(Cc2cccc3cc(-c4ccc(-c5ccccc5)cc4)[nH]c23)cc1 | > 100 | > 100 | > 100 | > 100 | > 100 | > 100 | > 100 | > 100 | > 100 | > 100 | > 100 | 
3 | CN(Cc1cnc2nc(N)nc(N)c2n1)c1ccc(C(=O)NC(CCS(=O)(=O)O)C(=O)O)cc1 (centres undefined) | > 100 | > 100 | > 100 | > 100 | 0.739 | > 100 | > 100 | > 100 | > 31.6 | > 100 | > 100 | 96
4 | NC(CCCCCP(=O)(O)O)C(=O)O (centres undefined) | > 100 | > 100 | > 100 | > 100 | > 100 | > 100 | > 100 | > 100 | > 100 | > 100 | > 100 | 
5 | C/C(CC(O)(C(F)(F)F)C(F)(F)F)=N\N | > 10 | > 10 | > 10 | > 10 | > 10 | > 10 | > 10 | > 10 | > 10 | > 10 | > 10 | 
6 | CCN(CC)CCn1ncc2ccc3c(c(=O)c4cccnc4n3CCN(CC)CC)c21 | 1.46 | 2.81 | 4.12 | 3.63 | 1.82 | 5.15 | 3.05 | 1.94 | 2.45 | > 6.79 | 4.01 | 
7 | C=C1C(=O)OC2/C=C(\C)CC/C=C(/C)CC(OC(=O)/C(=C/CO)CO)C12 (centres undefined) | 33 | > 100 | > 100 | > 100 | > 100 | 33.1 | 39.1 | 82.5 | > 100 | 81.5 | > 100 | 
8 | COc1cc2c(cc1C)NC(=O)/C2=C/c1c(Cl)[nH]c2cc(C)c(OC)cc12 | 12.7 | 11.8 | 8.6 | 24.1 | 5.16 | 19.5 | 11.6 | 8.49 | 5.71 | 15.7 | 15.5 | 
9 | O=C(CSc1nc2ccc(I)cc2c(=O)n1Cc1ccccc1)N/N=C/c1ccccc1 | > 100 | 28.6 | 33.6 | 60.5 | > 100 | > 100 | 71.3 | > 100 | > 100 | > 100 | > 100 | 
10 | O=C(ON=c1c2ccccc2ccc2ccccc12)c1cc([N+](=O)[O-])cc([N+](=O)[O-])c1 | > 100 | > 100 | > 100 | > 100 | 94 | > 100 | > 100 | > 100 | > 100 | > 100 | > 100 | 
11 | C/C(Cl)=N\OC(=O)Nc1ccc([N+](=O)[O-])cc1 | 5.85 | 31.4 | 6.1 | 32.2 | > 100 | 48.6 | 49.9 | 32.9 | 38.8 | 9.93 | 36.2 | 
12 | N#CS/C(C(Cl)=C(Cl)Cl)=C(/Cl)[N+](=O)[O-] | 3.66 | 52 | 3.1 | 3.49 | 1.18 | 17.5 | 7.95 | 3.19 | 33.2 | 2.37 | 32.4 | 
13 | COc1ccc2c(c1)/C(=C(\C(Cl)=C(\Cl)N1CCCCC1)[N+](=O)[O-])N2 | > 100 | > 100 | > 100 | > 100 | > 100 | > 100 | > 100 | > 100 | > 100 | > 100 | > 100 | 
14 | COc1cc(Cn2c3c(c4c(CN(C)C)c(O)ccc42)C(=O)c2ccccc2C3=O)cc(OC)c1 | 85.3 | 8.07 | 90.5 | 28.3 | 52.4 | 51.9 | 29.1 | 37 | 32.3 | 40.6 | > 100 | 
15 | CCOC(=O)c1ccc(N=C2SC(=S)N(c3ccc(F)cc3)C2=Nc2ccc(C(=O)OCC)cc2)cc1 | 40.3 | 52.4 | > 53.7 | 22.3 | > 57.6 | 21.5 | 44.2 | 40.7 | > 100 | 17.9 | > 71.7 | 
16 | COc1ccc2c(c1)/C(=C(\C(Cl)=C(Cl)Cl)[N+](=O)[O-])N2 | > 100 | > 100 | > 100 | > 100 | > 100 | > 100 | > 100 | > 100 | > 100 | > 100 | > 100 | 
17 | CCN(CC)CCNc1ccc([N+](=O)[O-])c2nc3ccccc3c(N)c12 | 1.47 | 2.39 | 5.13 | > 10 | 2.08 | 4.07 | 2.03 | 1.67 | 1.24 | 1.61 | 1.41 | 
18 | O=C1CCc2c3c(c4c([nH]c5ccccc54)c2CC1)C(=O)NC3=O | > 100 | 0.61 | > 100 | 38.2 | > 100 | 42.8 | > 100 | 12.3 | 44.9 | 21 | 18.4 | 
19 | Cn1c(-c2ccccc2)cc(-c2ccc3c(c2)OCO3)c1-c1cccs1 | > 100 | > 100 | > 100 | > 100 | > 100 | > 100 | > 100 | > 100 | > 100 | > 100 | > 100 | 
20 | COc1ccc2nc(-c3ccc(OC(=O)N(C)C)cc3)cn2c1 | > 100 | > 100 | > 100 | > 100 | > 100 | > 100 | > 100 | > 100 | > 100 | > 100 | > 100 | 
21 | COC(=O)N1CC[C@@H]2CCC=C(c3cccc4c3OCO4)[C@@H]21 | > 100 | 62 | > 100 | > 100 | > 100 | > 100 | > 100 | > 100 | > 100 | > 100 | > 100 | 
22 | O=c1oc2ncccc2n1Cc1ccc([N+](=O)[O-])cc1 | > 100 | > 100 | > 100 | > 100 | > 100 | > 100 | > 100 | > 100 | > 100 | > 100 | > 100 | 
23 | CCN(CC)CCN1c2ccccc2Sc2ccc3ccccc3c21 | 15.9 | 19.9 | 24.6 | 26.8 | 15 | 22 | 31.9 | 21.2 | 6.42 | 21.4 | 19.7 | 
24 | CN1CN(c2ccccc2)C2(CCNCC2)C1=O | > 100 | > 100 | > 100 | > 100 | > 100 | > 100 | > 100 | > 100 | > 100 | > 100 | > 100 | 
25 | Cc1csc2c(P(=O)(OC(C)C)OC(C)C)c(-c3ccccc3)cn12 | 37.8 | 27.7 | 28.2 | 33 | 37.2 | 20 | 37.9 | 37.7 | 30.1 | 27.3 | 30.6 | 
26 | CCOC(=O)C(SCCO)C(C(=O)OCC)n1ccc(N)nc1=O (centres undefined) | > 100 | > 100 | > 100 | > 100 | > 100 | > 100 | > 100 | > 100 | > 100 | > 100 | > 100 | 
27 | Cc1c2c(c(C)c3c[n+](C)ccc13)Oc1ccccc1O2 | > 52.9 | 17.5 | 17.5 | > 54 | 37.6 | 27.4 | 40.4 | 34.1 | 16.4 | > 71.1 | 6.42 | 
28 | COC(=O)C12CCC(C(=O)OC)(Cc3c(c4ccccc4n3S(=O)(=O)c3ccccc3)C1)C2=O (centres undefined) | > 100 | > 100 | > 100 | > 100 | > 100 | > 100 | > 100 | > 100 | > 100 | > 100 | > 100 | 
